Test results from patent US20250073209A1, “COVALENT TARGETING OF RhoA FOR CANCER THERAPY” (The University of Hong Kong, priority 2023, published 2025).

Columns and labels:
HCT116 cells [1] = experiment: F-actin staining (Alexa Fluor 488-Phalloidin), serum re-stimulation; type: cell-based, human; details: HCT116, 24 h, 10% FBS re-stimulation 10 min
Procedure: To further validate the inhibitory effects of CL16 on RhoA, HCT116 and HT29 cells were transfected with a FRET-RhoA biosensor, where cells with elevated RhoA activity would show a higher FRET/mTFP1. Specifically, HCT116 cells transfected with FRET-RhoA biosensor were treated with CL16 or solvent in serum-free medium for 24 h, washed with PBS, re-stimulated with 10% FBS for 10 min, washed, and then imaged in HBSS by confocal fluorescence microscopy. […] In addition, HCT116 cells were serum-starved and treated with CL16 or Rhosin for 24 h, followed by 10% FBS re-stimulation for 10 min. The cells were then washed and fixed by 4% paraformaldehyde, washed with PBS and stained with Alexa Fluor 488-Phalloidin in PBS (1:20, v/v) at room temperature for 15 min. The cells were washed with PBS, incubated with Hoechst (8.2 μM) in PBS for 15 min, washed and then imaged in PBS by confocal fluorescence microscopy. […] Since RhoA regulates cytoskeletal dynamics and RhoA activation can induce the formation of contractile F-actin, the reduction of F-actin fibers by CL16 treatment supports its inhibitory roles on RhoA signaling.

Rac1 = Rac1 (Homo sapiens, UniProt P63000); experiment: Gel-based competitive ABPP, second screening on Rac1; type: binding
Procedure: Recombinant human RhoA (0.1 μg; ab101594) was pretreated with cysteine-reactive compounds or DMSO for 1 hour at room temperature, followed by incubation with iodoacetamide-rhodamine (IA-Rh; 1 μM) for 1 hour at room temperature. The reaction was then quenched by boiling in sampling buffer. Samples were subjected to SDS-PAGE to separate proteins bands. In-gel fluorescence intensity was measured with a Chemidoc using setting for Rhodamine. Gel was subsequently stained with silver stain (Pierce) for visualization of protein content and covalent modification. Band intensity was quantified using ImageJ.
CL16 was identified for its strong and specific binding with RhoA in covalent ligand screening experiment by ABPP. ABPP is known as a powerful platform for covalent ligand screening, particularly for the identification of lead compounds targeting new hotspots for therapy. Competitive gel-based activity-based protein profiling (ABPP) experiment was performed on purified RhoA protein for screening its interactions with a library of cysteine-reactive covalent ligands with acrylamide or chloroacetamide warheads. RhoA protein for the first screening and on Rac1 and Cdc42 for the second screening to identify lead compounds with specific binding onto RhoA Cys16. […] The reaction mixture was then resolved by SDS-PAGE and in-gel fluorescence was imaged (FIG. 1A). […]

Cdc42 = Cdc42 (Homo sapiens, UniProt P60953); experiment: Cdc42-GTP PAK-PBD pull-down in HT29 cells; type: cell-based; set-up: endogenous in cells; host or cells: HT29; details: HT29, complete medium 24 h
Sequence of Cdc42 (P60953 whole entry): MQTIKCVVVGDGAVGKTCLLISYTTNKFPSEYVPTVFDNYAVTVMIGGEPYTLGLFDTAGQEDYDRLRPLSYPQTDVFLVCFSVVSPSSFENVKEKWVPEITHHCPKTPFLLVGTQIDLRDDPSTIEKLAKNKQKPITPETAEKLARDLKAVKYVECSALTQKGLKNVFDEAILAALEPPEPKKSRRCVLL
Source text: The procedure is similar to that for RhoA-GTP assay, except that Rac1-GTP and Cdc42-GTP in CRC cells were first enriched by Rac1 Pull-Down Activation Assay Biochem Kit (Cytoskeleton #BK035) instead of using the RhoA kit. The enriched Rac1-GTP and Cdc42-GTP were then immunoblotted by Rac1/2/3 antibody (CST #2465) and Cdc42 antibody (CST #2462) respectively.
GTP loading onto RhoA is critical for the protein activation and mediating downstream signals. In view of the inhibitions of GDP-to-GTP exchange of RhoA by CL16 in vitro as discussed above, effects of CL16 on RhoA biology in colorectal cancer cells were examined. In the serum starvation-re-stimulation experiment, HCT116 cells were grown in serum-free medium with CL16, Rhosin or solvent control for 24 h, followed by stimulation with 10% FBS for 10 min. The cells were then lysed and the RhoA activity was assayed by the level of RhoA-GTP, which is the active form of RhoA. […] HT29 cells were incubated with solvent vehicle, CL16 or Rhosin in complete medium for 24 h. The cells were then washed, lysed and subjected to rhotekin pull-down for blotting RhoA-GTP, or PAK-PBD pull-down for blotting Rac1-GTP and Cdc42-GTP. Confocal fluorescence images from HCT116 and HT29 cells expressing FRET RhoA-biosensor in the serum starvation-restimulation experiment were taken.

HCT116 cells [2] = experiment: Apoptosis assay with Caspase-3/7 Green Detection Reagent; type: cell-based, human; details: HCT116, 24 h
Procedure: HCT116 cells were seeded onto a poly-D-lysine coated Ibidi 8-well chamber slide (20,000 cells) and cultured overnight in complete medium at 37° C. with 5% CO2. The cells were treated with DMSO control, Rhosin or CL16 at the indicated concentration along with 5 μM of CellEvent™ Caspase- 3/7 green in serum-free medium for 24 h. Prior to imaging, the medium was exchanged for Hanks' Balanced Salt Solution (HBSS). Confocal fluorescence microscopy was performed using a Zeiss laser scanning microscope 880 with a 20× water-immersion objective lens and ZEN 2.3 (Black Version) software (Carl Zeiss). CellEvent™ Caspase- 3/7 green was excited by a 488 nm diode laser and emission was collected on a META detector between 490 and 525 nm. Image analysis was performed on ImageJ where the number of cells expressing fluorescence within the field was counted against the total number of cells to report the percentage of apoptotic cells. The average percentage was calculated from 3 separate images from the same well.
The effects of CL16 treatment on cell cycle checkpoint proteins were investigated with immunoblotting of the cell cycle checkpoint proteins in SW620 and HT29 cells after CL16 treatment for 24 h. […] Caspase- 3/7 Green Detection Reagent was used to study apoptosis in HCT116 cells treated with Rhosin by confocal fluorescence imaging. […]

binding with Rac1 (Rac1): no observable binding
Cdc42 activity (Cdc42-GTP) (Cdc42): no significant changes
SMILES: O=C(CCl)N1N=C(c2cc3ccccc3o2)CC1c1ccco1 (stereo not shown) [CL16]
concentration from which reduction of F-actin fibers was observed (HCT116 cells [1]): ≥ 5 µM
cell apoptosis (HCT116 cells [2]): mediated cell apoptosis
